The values that follow come from patent US7232906B2, “Substituted pyrrolines as kinase inhibitors” (Janssen Pharmaceutica N.V., priority 2002, dated 2007).

Common to all, as to type: biochemical
In assay [1] the target is recombinant rabbit GSK-3β (Oryctolagus cuniculus, UniProt G1T8E2). Nature of the assay: Glycogen Synthase Kinase-3 assay. Set-up: GSK-3β Assay Activity, % @ 200 nM: scale not given here. Particulars: PPI-2 substrate; for IC50: 33P-ATP, 90 minutes at 30° C. How it is done:
Compounds were tested for the ability to inhibit recombinant rabbit GSK-3β using the following protocol. The test compound was added to a reaction mixture containing Protein phosphatase inhibitor-2 (PPI-2) (Calbiochem) (45 ng), rabbit GSK-3β (New England Biolabs) (0.75 units) and ^33P-ATP (1 μCi) in 50 mM Tris-HCl (pH 8.0), 10 mM MgCl2, 0.1% BSA, 1 mM DTT and 100 μM Sodium Vanadate. The mixture was reacted for 90 minutes at 30° C. to allow phosphorylation of the PPI-2 protein and then the protein in the reaction was precipitated using 10% TCA. The precipitated protein was collected on filter plates (MultiScreen-DV/Millipore), which were subsequently washed. Finally, the radioactivity was quantified using a TopCount Scintillation Counter (Packard). […] Staurosporine or Valproate, known inhibitors of GSK-3β, were used as a positive control for screening.

The target of another assay is PKC β-II (Homo sapiens, UniProt P05771). As to the kind of experiment: Protein Kinase C histone-based assay, β-II isoform. Set-up: PKC Activity Beta II, % @ 1 μM (Histone Based Assay): scale not given here. The conditions noted are these: histone III substrate; for IC50: 30 μM ATP, approximately ± 30 percent margin of error, read-out: PKC Activity Beta II (IC50, Histone Based Assay). Here is the method:
(§1) Compounds were evaluated for PKC selectivity using histone III as the substrate. The PKC isoforms α, β-II or γ were added to a reaction mixture that contained 20 mM HEPES, (pH 7.4), 940 μM CaCl2, 10 mM MgCl2, 1 mM EGTA. 100 μg/mL phosphatidylserine, 20 μg/mL diacylglycerol, 30 μM ATP, 1 μCi (^33P)ATP and 200 μg/mL histone III. The reaction was incubated for 10 min at 30° C. Reactions were terminated by TCA precipitation and spotting on Whatman P81 filters. Filters were washed in 75 mM phosphoric acid and the radioactivity quantified by liquid scintillation counting.

The next assay addresses PKC γ (Homo sapiens, UniProt P05129). Nature of the assay: Protein Kinase C histone-based assay, γ isoform. Set-up: PKC Activity Gamma, % @ 10 μM (Histone Based Assay): scale not given here. Particulars: histone III substrate; for IC50: 30 μM ATP, approximately ± 30 percent margin of error, read-out: PKC Activity Gamma (IC50, Histone Based Assay). How it is done:
as §1

The target of the next assay is PKC α (Homo sapiens, UniProt P17252). As to the kind of experiment: Protein Kinase C histone-based assay, α isoform. Also on record: PKC Activity Alpha, % @ 10 μM (Histone Based Assay): scale not given here. Particulars: histone III substrate; for IC50: 30 μM ATP, approximately ± 30 percent margin of error, read-out: PKC Activity Alpha (IC50, Histone Based Assay). Here is the method: as §1

Chain of PKC β-II (P05771 1-673 isoform P05771-2): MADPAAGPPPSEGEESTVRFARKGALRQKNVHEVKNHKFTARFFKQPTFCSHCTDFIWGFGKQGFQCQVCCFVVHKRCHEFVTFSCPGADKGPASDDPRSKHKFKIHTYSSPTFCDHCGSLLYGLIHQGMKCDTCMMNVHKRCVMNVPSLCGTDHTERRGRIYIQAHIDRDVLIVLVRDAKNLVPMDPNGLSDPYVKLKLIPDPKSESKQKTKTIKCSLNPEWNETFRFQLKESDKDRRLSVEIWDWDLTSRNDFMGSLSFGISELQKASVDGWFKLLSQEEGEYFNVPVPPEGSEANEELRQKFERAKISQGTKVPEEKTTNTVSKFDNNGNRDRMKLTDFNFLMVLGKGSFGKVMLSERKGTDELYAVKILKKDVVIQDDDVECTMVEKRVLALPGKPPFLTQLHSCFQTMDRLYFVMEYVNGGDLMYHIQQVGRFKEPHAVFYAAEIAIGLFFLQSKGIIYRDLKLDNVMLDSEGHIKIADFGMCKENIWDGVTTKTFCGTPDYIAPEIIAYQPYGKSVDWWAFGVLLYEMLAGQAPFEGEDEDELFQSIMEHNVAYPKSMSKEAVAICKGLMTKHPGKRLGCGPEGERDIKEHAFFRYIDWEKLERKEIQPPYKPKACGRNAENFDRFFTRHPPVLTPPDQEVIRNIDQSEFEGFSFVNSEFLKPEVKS
Chain of recombinant rabbit GSK-3β (G1T8E2 1-432): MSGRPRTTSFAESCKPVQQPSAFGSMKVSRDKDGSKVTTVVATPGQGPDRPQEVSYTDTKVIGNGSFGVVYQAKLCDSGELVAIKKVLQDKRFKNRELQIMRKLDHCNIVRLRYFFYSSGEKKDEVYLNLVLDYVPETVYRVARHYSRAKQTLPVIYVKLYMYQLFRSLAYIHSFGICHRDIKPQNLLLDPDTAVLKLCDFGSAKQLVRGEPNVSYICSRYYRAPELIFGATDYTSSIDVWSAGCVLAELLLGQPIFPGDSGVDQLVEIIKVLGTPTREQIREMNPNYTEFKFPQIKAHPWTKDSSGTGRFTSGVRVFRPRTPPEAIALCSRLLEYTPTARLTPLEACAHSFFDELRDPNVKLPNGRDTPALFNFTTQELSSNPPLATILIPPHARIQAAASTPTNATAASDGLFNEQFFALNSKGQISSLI

Turning to “3-(2-bromo-5-[3-(dimethylamino)propyl]phenyl]-4-(1-phenyl-1H-indol-3-yl)-1H-pyrrole-2,5-dione [Cpd 25]”, the IC50 in assay [1] turned out to be 110 nM.
As for “3-(3-bromophenyl)-4-[1-[3-(3-butynylmethylamino)propyl]-1H-indol-3-yl]-1H-pyrrole-2,5-dione [Cpd 22]”, the “GSK-3β Assay Activity, % @ 200 nM” value in assay [1] stood at 62% @ 200 nM.
As for “3-[1-[3-(3-butynylmethylamino)propyl]-1H-indol-3-yl]-4-(3-iodophenyl)-1H-pyrrole-2,5-dione [Cpd 23]”, the “GSK-3β Assay Activity, % @ 200 nM” value in assay [1] was found to be 67% @ 200 nM.
Consider `C=Cn1cc(C2=C(c3cccc(OCC(O)CN(C)C)c3)C(=O)NC2=O)c2ccccc21` (stereo not shown) [Cpd 2, 3-[3-[3-(dimethylamino)-2-hydroxypropoxy]phenyl]-4-(1-ethenyl-1H-indol-3-yl)-1H-pyrrole-2,5-dione], for which the “GSK-3β Assay Activity, % @ 200 nM” value in assay [1] was found to be 72% @ 200 nM.
As to `CCOC(Cn1cc(C2=C(c3ccccc3OC)C(=O)NC2=O)c2ccccc21)OCC` [Cpd 7, 3-[1-(2,2-diethoxyethyl)-1H-indol-3-yl]-4-(2-methoxy-phenyl)-1H-pyrrole-2,5-dione], the IC50 in assay [1] worked out at 390 nM. Moreover, the “PKC Activity Beta II, % @ 1 μM (Histone Based Assay)” value on PKC β-II came out at 68% @ 1 μM. In addition, the “PKC Activity Gamma, % @ 10 μM (Histone Based Assay)” value (“PKC Activity Gamma, % @ 10 μM” for short) on PKC γ stood at 54% @ 10 μM. The “PKC Activity Alpha, % @ 10 μM (Histone Based Assay)” value (from here on “PKC Activity Alpha, % @ 10 μM”) on PKC α is recorded as 39% @ 10 μM.
For the molecule `COc1ccccc1C1=C(c2cn(CC=O)c3ccccc23)C(=O)NC1=O` [Cpd 8, 3-[2,5-dihydro-4-(2-methoxyphenyl)-2,5-dioxo-1H-pyrrol-3-yl]-1H-indole-1-acetaldehyde], the IC50 in assay [1] amounted to 39 nM.
For the molecule `COc1ccccc1C1=C(c2cn(CCN(C)CCO)c3ccccc23)C(=O)NC1=O` [Cpd 9, 3-[1-[2-[(2-hydroxyethyl)methylamino]ethyl]-1H-indol-3-yl]-4-(2-methoxyphenyl)-1H-pyrrole-2,5-dione], the IC50 in assay [1] came out at 27 nM. At PKC β-II, the “PKC Activity Beta II, % @ 1 μM (Histone Based Assay)” value is 40% @ 1 μM. For the same molecule, the “PKC Activity Gamma, % @ 10 μM” value at PKC γ was 15% @ 10 μM. Further, at PKC α, the “PKC Activity Alpha, % @ 10 μM” value is on record as 27% @ 10 μM.
As to `CN(C)CCCn1cc(C2=C(c3cccc4ccccc34)C(=O)NC2=O)c2ccccc21` [Cpd 12, 3-[1-[3-(dimethylamino)propyl]-1H-indol-3-yl]-4-(1-naphthalenyl)-1H-pyrrole-2,5-dione], the “GSK-3β Assay Activity, % @ 200 nM” value in assay [1] was found to be 64% @ 200 nM.
For the molecule `CN(C)CC(O)COc1ccccc1C1=C(c2cn(CCO)c3ccccc23)C(=O)NC1=O` (stereo not shown) [Cpd 21, 3-[2-[3-(dimethylamino)-2-hydroxypropoxy]phenyl]-4-[1-(2-hydroxyethyl)-1H-indol-3-yl]-1H-pyrrole-2,5-dione], the half-inhibitory concentration (IC50) on PKC β-II was 51 nM; on PKC γ, 477 nM; at PKC α, 117 nM.
Regarding `COc1ccccc1C1=C(c2cn(-c3cncnc3)c3ccccc23)C(=O)NC1=O` [Cpd 26, 3-(2-methoxyphenyl)-4-[1-(5-pyrimidinyl)-1H-indol-3-yl]-1H-pyrrole-2,5-dione], the IC50 was 8 nM in assay [1], 607 nM at PKC β-II and 2070 nM on PKC α. Besides, the “PKC Activity Gamma, % @ 10 μM” value at PKC γ was 29% @ 10 μM.
As for `COc1ccccc1C1=C(c2cn(-c3cccnc3)c3ccccc23)C(=O)NC1=O` [Cpd 27, 3-(2-methoxyphenyl)-4-[1-(3-pyridinyl)-1H-indol-3-yl]-1H-pyrrole-2,5-dione], the IC50 in assay [1] came to 26 nM; at PKC β-II it was 527 nM. The “PKC Activity Alpha, % @ 10 μM” value on PKC α worked out at 66% @ 10 μM.
For the molecule `O=C1NC(=O)C(c2cn(-c3cccnc3)c3ccccc23)=C1c1ccccc1O` [Cpd 28, 3-(2-hydroxyphenyl)-4-[1-(3-pyridinyl)-1H-indol-3-yl]-1H-pyrrole-2,5-dione], the IC50 in assay [1] worked out at 68 nM.
Still for that read-out and setting: for `O=C1NC(=O)C(c2cn(-c3cccnc3)c3ccccc23)=C1c1ccc(O)cc1` [Cpd 29, 3-(4-hydroxyphenyl)-4-[1-(3-pyridinyl)-1H-indol-3-yl]-1H-pyrrole-2,5-dione] the value was 96 nM.
For `CN(C)CCCn1cc(C2=C(c3csc4ccc(Cl)cc34)C(=O)NC2=O)c2ccccc21` [Cpd 31, 3-(5-chlorobenzo[b]thien-3-yl)-4-[1-[3-(dimethylamino)propyl]-1H-indol-3-yl]-1H-pyrrole-2,5-dione], the figures for the IC50 on PKC β-II and at PKC α were 81 nM and 83 nM, respectively.
Turning to `CN(CCO)CCn1cc(C2=C(c3csc4ccc(Cl)cc34)C(=O)NC2=O)c2ccccc21` [Cpd 41, 3-(5-chlorobenzo[b]thien-3-yl)-4-(1-[2-[(2-hydroxyethyl)methylamino]ethyl]-1H-indol-3-yl]-1H-pyrrole-2,5-dione], in assay [1], the “GSK-3β Assay Activity, % @ 200 nM” value is 81% @ 200 nM.
Regarding `O=C1NC(=O)C(c2cn(CCN3CCSC3)c3ccccc23)=C1c1csc2ccc(Cl)cc12` [Cpd 46, 3-(5-chlorobenzo[b]thien-3-yl)-4-[1-[2-(3-thiazolidinyl)ethyl]-1H-indol-3-yl]-1H-pyrrole-2,5-dione], in assay [1], the “GSK-3β Assay Activity, % @ 200 nM” value was found to be 45% @ 200 nM.
Turning to `COc1ccccc1C1=C(c2cn(C3CCOCC3)c3ccccc23)C(=O)NC1=O` [Cpd 55, 3-(2-Methoxyphenyl)-4-[1-(tetrahydropyran-4-yl)-1H-indol-3-yl]-1H-pyrrole-2,5-dione], the IC50 in assay [1] was found to be 25 nM; on PKC β-II, 107 nM; at PKC γ, 282 nM; on PKC α, 412 nM.
Regarding `COc1ccccc1C1=C(c2cn(-c3cncc(C(=O)O)c3)c3ccc(Cl)cc23)C(=O)NC1=O` [Cpd 56, 5-{5-Chloro-3-[4-(2-methoxyphenyl)-2,5-dioxo-2,5-dihydro-1H-pyrrol-3-yl]-indol-1-yl}-nicotinic acid], the IC50 in assay [1] worked out at 51 nM; at PKC β-II, 42 nM; at PKC γ, 832 nM; on PKC α it was 592 nM.
For the molecule `COC(=O)c1cncc(-n2cc(C3=C(c4ccccc4OC)C(=O)NC3=O)c3cc(Cl)ccc32)c1` [Cpd 57, 5-{5-Chloro-3-[4-(2-methoxyphenyl)-2,5-dioxo-2,5-dihydro-1H-pyrrol-3-yl]-indol-1-yl}-nicotinic acid methyl ester], the IC50 in assay [1] stood at 40 nM.
For `COc1ccccc1C1=C(c2cn(-c3cncc(C(N)=O)c3)c3ccc(Cl)cc23)C(=O)NC1=O` [Cpd 58, 5-{5-Chloro-3-[4-(2-methoxyphenyl)-2,5-dioxo-2,5-dihydro-1H-pyrrol-3-yl]-indol-1-yl}-nicotinamide], the IC50 stood at 18 nM in assay [1], 32 nM on PKC β-II, 1270 nM at PKC γ and 816 nM on PKC α.

For orientation: IC50 means the concentration at which inhibition is half-maximal.
